Key:
Zucker fa/fa rat = experiment: Plasma parameters after 10 days of daily oral gavage in Zucker fa/fa rats (type 2 diabetes model); assay type: in vivo; details: for plasma 3-hydroxybutyrate / plasma non-esterified fatty acids / plasma glucose / plasma insulin / plasma total cholesterol / plasma triacylglycerols: 10 days
Description: A study was carried out using the Zucker fa/fa rat as experimental animal model for type 2 diabetes. In these rats a marked insulin resistance is known; their circulating glucose levels are somewhat higher than in normal rats, but their insulin levels are much higher and show marked hypertriacylglycerolemia and hypercholesterolemia. Four groups of adult Zucker fa/fa rats were used, two groups of 6 male rats each and two groups of 6 female rats each. For each sex, the first group was used as control and the other was treated with the drug. All rats were kept under standard housing conditions, with free access to water and pellet food. The animals received a daily gavage of 0.2 ml of sunflower oil by means of a stomach tube. In the treated-rat groups, the oil contained enough oleoyl-estrone dissolved to provide a daily dose of 10 micromol per kg of rat weight. After 10 days of daily gavages, the rats were killed and their blood was recovered, being used to obtain plasma by centrifugation. Plasma samples were used for the analysis of glucose, total cholesterol and triacylglycerols by means of a dry-strip procedure (Spotchem, Menarini, Firenze, Italy), the levels of 3-hydroxybutyrate were measured with the kit 907979 from Boehringer Mannheim (Mannheim, Germany), and non-esterified fatty acids with the kit 1383175 from the same company. Insulin levels were measured through radioimmunoassay (rat insulin kit, Amersham, Amersham, United Kingdom).

[1] = system: normal-weight adult female Zucker rats (genotype Fa/?); experiment: Plasma lipoproteinogram (polyacrylamide gel electrophoresis), normal-weight rats; assay type: in vivo, rat; details: 10 micromols per kg daily, 10 days
Description: FIG. 1 is a lipoproteinogram of plasma from normal-weight rats (Zucker Fa/?), showing the effect of oleoyl-estrone on lipoprotein distribution. I=intact; C=control; T=treated with oleoyl-estrone; HDL=high-density lipoproteins; LDL=low-density lipoproteins; VLDL=very low-density lipoproteins.
Since treatment with oleoyl-estrone deeply modifies the plasma lipids of rats, an experiment was carried out to determine whether the oral administration of oleoyl-estrone modifies the plasma lipidogram of lean and genetically obese rats. Two groups of animals were used: (1) normal-weight adult female Zucker rats (genotype Fa/?), and (2) genetically obese adult female Zucker rats (genotype fa/fa). In the first group one rat was killed to obtain a sample of blood (intact control); in the second group (obese rats), two intact controls were killed and their blood recovered. […] All blood samples were centrifuged to obtain plasma; plasma proteins were analysed by means of polyacrylamide gel electroforesis (kit Lipofilm, Sebia, Issy les Molineaux, France), lipids were stained with Sudan black.

[2] = system: genetically obese adult female Zucker rats (genotype fa/fa); experiment: Plasma lipoproteinogram (polyacrylamide gel electrophoresis), obese rats; assay type: in vivo, rat; details: 10 micromols per kg daily, 10 days
Description: FIG. 2 is a lipoproteinogram analogous to the one of FIG. 1, but using obese rats (Zucker fa/fa).
Since treatment with oleoyl-estrone deeply modifies the plasma lipids of rats, an experiment was carried out to determine whether the oral administration of oleoyl-estrone modifies the plasma lipidogram of lean and genetically obese rats. Two groups of animals were used: (1) normal-weight adult female Zucker rats (genotype Fa/?), and (2) genetically obese adult female Zucker rats (genotype fa/fa). In the first group one rat was killed to obtain a sample of blood (intact control); in the second group (obese rats), two intact controls were killed and their blood recovered. All the remaining rats were kept under standard housing conditions, with free access to food and water; the rats receivid a daily gavage of 0.2 ml of sunflower oil by means of a stomach tube; in three rats form each group, the oil was supplemented with enough oleoyl-estrone to achieve a daily dose of 10 micromols per kg of rat weight. After 10 days of treatment, the rats were killed, and their blood was recovered. All blood samples were centrifuged to obtain plasma; plasma proteins were analysed by means of polyacrylamide gel electroforesis (kit Lipofilm, Sebia, Issy les Molineaux, France), lipids were stained with Sudan black.

[3] = Zucker fa/fa rats, oral treatment vs controls
[4] = Zucker fa/fa rats, oral treatment vs controls, P<0.05
[5] = female obese Zucker fa/fa rats, 10 μmol/kg · d oral gavage
[6] = female obese Zucker fa/fa rats, 10 mol/kg · d oral gavage
[7] = male obese Zucker fa/fa rats, 10 μmol/kg · d oral gavage

CCCCCCCC/C=C\CCCCCCCC(=O)Oc1ccc2c(c1)CC[C@@H]1[C@@H]2CC[C@]2(C)C(=O)CC[C@@H]12 [oleoyl-estrone]
change in 3-hydroxybutyrate (Zucker fa/fa rat; [3]): no changes
change in insulin levels (Zucker fa/fa rat; [3]): marked decrease
change in non-esterified fatty acids (Zucker fa/fa rat; [3]): no changes
change in plasma concentration of glucose (Zucker fa/fa rat; [4]): significant decreases
change in plasma concentration of total cholesterol (Zucker fa/fa rat; [4]): significant decreases
change in plasma concentration of triacylglycerols (Zucker fa/fa rat; [4]): significant decreases
plasma 3-hydroxybutyrate (Zucker fa/fa rat; [5]): 187 ± 26 µM
plasma non-esterified fatty acids (Zucker fa/fa rat; [5]): 642 ± 52 µM
plasma glucose (Zucker fa/fa rat; [6]): 4.91 ± 0.17 mM
plasma insulin (Zucker fa/fa rat; [6]): 1.78 ± 0.21 nM
plasma total cholesterol (Zucker fa/fa rat; [6]): 1.59 ± 0.29 mM
plasma triacylglycerols (Zucker fa/fa rat; [6]): 1.80 ± 0.17 mM
plasma 3-hydroxybutyrate (Zucker fa/fa rat; [7]): 281 ± 31 µM
plasma glucose (Zucker fa/fa rat; [7]): 6.14 ± 0.13 mM
plasma insulin (Zucker fa/fa rat; [7]): 1.11 ± 0.12 nM
plasma non-esterified fatty acids (Zucker fa/fa rat; [7]): 720 ± 110 µM
plasma total cholesterol (Zucker fa/fa rat; [7]): 1.77 ± 0.26 mM
plasma triacylglycerols (Zucker fa/fa rat; [7]): 1.88 ± 0.19 mM
change of VLDLs in lipoproteinogram [1]: marked increase
change of high density lipoproteins in lipoproteinogram [1]: marked reduction
lipoprotein pattern in lipoproteinogram [2]: this same pattern is repeated, but there is an additional wide band between the LDL and VLDL zones

From US20040138193A1, “Oestrogen fatty acid monoester as a hypolipidaemic and antidiabetic agent” (priority 2001, published 2004)
